Test results taken from patent US20240360143A1, “[1,2,4]TRIAZOLO[4,3-A]PYRIMIDIN-7(8H)-ONE AS MITOCHONDRIAL PYRUVATE CARRIER INHIBITORS FOR USE IN THE TREATMENT OF CANCER” (MPC THERAPEUTICS SA, priority 2021, published 2024).
pIC50: −log10 of the molar value.

Assays:
[1] = molecular target: T1, mitochondrial pyruvate carrier (MPC) (Homo sapiens, UniProt O95563+Q9Y5U8); experiment: Bret IC50, inhibitory activity against MPC; type: cell-based
T1 sequence (Q9Y5U8 1-109): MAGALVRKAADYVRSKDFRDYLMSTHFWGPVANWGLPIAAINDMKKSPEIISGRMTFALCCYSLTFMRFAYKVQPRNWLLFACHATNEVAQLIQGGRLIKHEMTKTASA
T1 sequence (O95563 1-127): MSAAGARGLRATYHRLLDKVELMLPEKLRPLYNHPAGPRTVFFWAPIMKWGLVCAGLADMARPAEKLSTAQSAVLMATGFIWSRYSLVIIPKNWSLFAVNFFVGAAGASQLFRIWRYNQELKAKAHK
From the text: (§1) The inhibition of mitochondrial pyruvate carrier (MPC) by compounds of the invention have been tested as follows and their inhibitory activity was expressed as IC50s values.
Table 2 below presents the IC50s of the compounds of the invention.

[2] = molecular target: T1, mitochondrial pyruvate carrier (MPC); experiment: Seahorse Xfe24 pyruvate-dependent OCR in HeLa cells; type: cell-based; settings: pyruvate-dependent OCR in presence of fCCP
Description: as §1
Cells are plated in the customized Seahorse plates. For HeLa cells, seeding is at 4×10^4 cells/well in […] DMEM, 10% FBS, 1% pen/strep/glutamine. 3 wells are left blank (medium alone) for internal calibration. The assay cartridge is hydrated overnight at 37° C. in 1 ml/well XF Calibrant Solution.
Since 50 μl of compound of the invention will be injected into 450 μl washed cells, compounds are made up in assay medium at 10× the final desired concentration
For dose response analyses, compounds are tested at final concentrations 30, 5, 0.83, 0.14, 0.023 μM (1:6 serial dilutions from […])
Positive control: […] (the parent hit compound which gave rise to the actual series)
Negative control: Assay medium alone.
The seahorse reagent plate is prepared as follows and transfered to the Xfe24 analyser for the calibration step:
The medium is almost completely removed from the well without allowing cells to dry Cells are washed twice with 300 μl Assay Medium. 450 μl fresh Assay Medium is added to each well. The plate is transferred to the Xfe24 analyser for measurement of pyruvate-dependent OCR. All values are normalized to the initial basal respiration rate in each well which is measured prior to addition of compounds and designated as 100%. IC50 determination is based on the average of the 3 measurements made in the presence of fCCP, taking 30 μM parent hit compound as maximal inhibition and PBS/Ca/Mg as zero inhibition.

[3] = system: CD8 T cells (OT1 splenocytes); experiment: In vitro priming of CD8 T cells (OT1 splenocytes), memory marker expression by flow cytometry; type: cell-based, mouse; settings: day 7, highest doses
Description: OT1 splenocytes were cultured for 3 days at a concentration of 10^6 cells per mL in RPMI medium (Gibco 61870-01) supplemented with 10% FBS, (Gibco 10270-106), 1% Penicillin/Streptomycin (Gibco 15070-063), 50 μM ß-mercaptoethanol, 1% HEPES (Gibco 15630-080), 1× Non-essential amino acids (Gibco 11140-035), 1% L-glutamine (Gibco 25030-081), 1 mM Sodium Pyruvate (Gibco 11360-039). Cells were additionally supplemented with hIL-2 100 U/ml (Glaxo-IMB), ovalbumin N4 peptide (257-264) 1 μg/ml (model peptide antigen from ovalbumin) and either different concentrations of Compound 45 or 47 or with their solvent DMSO as a control. At day 3, splenocytes were collected, washed and split, and cells were cultured for 4 additional days with 100 U/ml hIL-2 and hIL-7 (Peprotech 200-07) supplemented either with Compound 45 or 47 or DMSO. At day 7, flow cytometry analyses were performed for surface marker expression.
To evaluate the effects of MPC inhibition on T cell differentiation, OTI splenocytes were cultured in the presence of 1 μg/ml ovalbumin-derived N4 peptide, 100 IU/ml recombinant human IL-2 (rhIL-2) and the MPC inhibitors Compound 45 or 47 or control DMSO for 3 days. The cells were cultured for 4 more days in the presence of 100 IU/ml IL-2 and 10 ng/ml rhIL-7 (FIG. 1A) and the inhibitors or DMSO. When analyzing the surface expression of the central memory marker CD62L (FIG. 1B) and the pro-survival receptor CD127 (FIG. 1C) by flow cytometry on day 7, an increase in cells treated with the highest doses of compounds of the invention was observed compared to DMSO.

Compound	pIC50 [1]	pIC50 [2]	also measured
CCCc1cc(=O)[nH]c2nnc(SCc3cc(F)cc(F)c3)n12 [Compound 3, 3-[(3,5-difluorobenzyl)sulfanyl]-5-propyl[1,2,4]triazolo[4,3-a]pyrimidin-7 (8H)-one]	5.66	–	–
CCCc1cc(=O)[nH]c2nnc(SCc3cccc(C#N)c3)n12 [Compound 7, 3-{[(7-oxo-5-propyl-7,8-dihydro[1,2,4]triazolo[4,3-a]pyrimidin-3-yl)sulfanyl]methyl}benzonitrile]	4.99	–	–
CCCc1cc(=O)[nH]c2nnc(SCc3cc(F)ccc3C#N)n12 [Compound 8, 4-fluoro-2-{[(7-oxo-5-propyl-7,8-dihydro[1,2,4]triazolo[4,3-a]pyrimidin-3-yl)sulfanyl]methyl}benzonitrile]	5.27	–	–
CCCc1cc(=O)[nH]c2nnc(SCc3cc(F)ccc3OC)n12 [Compound 9, 3-[(5-fluoro-2-methoxybenzyl)sulfanyl]-5-propyl[1,2,4]triazolo[4,3-a]pyrimidin-7 (8H)-one]	6.06	6.73	–
CCCc1cc(=O)[nH]c2nnc(SCc3cc(F)ccc3C)n12 [Compound 12, 3-[(5-fluoro-2-methylbenzyl)sulfanyl]-5-propyl[1,2,4]triazolo[4,3-a]pyrimidin-7 (8H)-one]	6.25	6.80	–
CCCc1cc(=O)[nH]c2nnc(SCCc3ccccc3)n12 [Compound 14, 3-[(2-phenylethyl)sulfanyl]-5-propyl[1,2,4]triazolo[4,3-a]pyrimidin-7 (8H)-one]	5.76	–	–
CCCc1cc(=O)[nH]c2nnc(SCc3ccoc3)n12 [Compound 15, 3-[(furan-3-ylmethyl)sulfanyl]-5-propyl[1,2,4]triazolo[4,3-a]pyrimidin-7 (8H)-one]	5.68	–	–
CCCc1cc(=O)[nH]c2nnc(SCc3cccc(OC)c3)n12 [Compound 17, 3-[(3-methoxybenzyl)sulfanyl]-5-propyl[1,2,4]triazolo[4,3-a]pyrimidin-7 (8H)-one]	5.69	–	–
CCCc1cc(=O)[nH]c2nnc(SCc3ccc(C#N)cc3)n12 [Compound 18, 4-{[(7-oxo-5-propyl-7,8-dihydro[1,2,4]triazolo[4,3-a]pyrimidin-3-yl)sulfanyl]methyl}benzonitrile]	5.38	–	–
CCCc1cc(=O)[nH]c2nnc(SCc3ccc4occc4c3)n12 [Compound 19, 3-[(1-benzofuran-5-ylmethyl)sulfanyl]-5-propyl[1,2,4]triazolo[4,3-a]pyrimidin-7 (8H)-one]	5.46	–	–
CCCc1cc(=O)[nH]c2nnc(SCc3c(C)cccc3C)n12 [Compound 25, 3-[(2,6-dimethylbenzyl)sulfanyl]-5-propyl[1,2,4]triazolo[4,3-a]pyrimidin-7 (8H)-one]	6.23	6.77	–
Cc1cc(=O)[nH]c2nnc(SCc3cc(F)ccc3F)n12 [Compound 29, 3-[(2,5-difluorobenzyl)sulfanyl]-5-methyl[1,2,4]triazolo[4,3-a]pyrimidin-7 (8H)-one]	5.24	–	–
O=c1cc(CCOCc2ccccc2)n2c(SCc3cc(F)ccc3F)nnc2[nH]1 [Compound 30, 5-[2-(benzyloxy)ethyl]-3-[(2,5-difluorobenzyl)sulfanyl][1,2,4]triazolo[4,3-a]pyrimidin-7 (8H)-one]	6.03	5.78	–
COCc1cc(=O)[nH]c2nnc(SCc3cc(F)ccc3F)n12 [Compound 31, 3-[(2,5-difluorobenzyl)sulfanyl]-5-(methoxymethyl) [1,2,4]triazolo[4,3-a]pyrimidin-7 (8H)-one]	5.25	–	–
O=c1cc(CCOCc2ccccc2Cl)n2c(SCc3cc(F)ccc3F)nnc2[nH]1 [Compound 33, 5-{2-[(2-chlorobenzyl)oxy]ethyl}-3-[(2,5-difluorobenzyl)sulfanyl][1,2,4]triazolo[4,3-a]pyrimidin-7 (8H)-one]	5.88	5.98	–
O=c1cc(C2CC2)n2c(SCc3c(F)cccc3Cl)nnc2[nH]1 [Compound 39, 3-[(2-chloro-6-fluorobenzyl)sulfanyl]-5-cyclopropyl[1,2,4]triazolo[4,3-a]pyrimidin-7 (8H)-one]	6.23	–	–
CC(C)Cc1cc(=O)[nH]c2nnc(SCc3c(F)cccc3Cl)n12 [Compound 40, 3-[(2-chloro-6-fluorobenzyl)sulfanyl]-5-(2-methylpropyl) [1,2,4]triazolo[4,3-a]pyrimidin-7 (8H)-one]	6.41	6.66	–
O=c1cc(CC2CC2)n2c(SCc3c(F)cccc3Cl)nnc2[nH]1 [Compound 41, 3-[(2-chloro-6-fluorobenzyl)sulfanyl]-5-(cyclopropylmethyl) [1,2,4]triazolo[4,3-a]pyrimidin-7 (8H)-one]	6.89	–	–

Continued, in another order:

pIC50 [1]	pIC50 [2]	Compound	also measured
6.09	6.54	O=c1cc(CCOCc2ccccc2)n2c(SCc3c(F)cccc3Cl)n[nH]c2n1 [Compound 43, 5-[2-(benzyloxy)ethyl]-3-[(2-chloro-6-fluorobenzyl)sulfanyl][1,2,4]triazolo[4,3-a]pyrimidin-7 (1H)-one]	–
5.33	–	N#Cc1ccc(CSc2nnc3[nH]c(=O)cc(Cc4ccccc4)n23)cc1 [Compound 46, 4-{[(5-benzyl-7-oxo-7,8-dihydro[1,2,4]triazolo[4,3-a]pyrimidin-3-yl)sulfanyl]methyl}benzonitrile]	–
6.78	6.74	CCCc1cc(=O)[nH]c2nnc(Sc3ccccc3)n12 [Compound 47, 3-(phenylsulfanyl)-5-propyl[1,2,4]triazolo[4,3-a]pyrimidin-7 (8H)-one]	cells positive for central memory marker CD62L ([3]; vs DMSO (FIG. 1B)): increase; cells positive for pro-survival receptor CD127 ([3]; vs DMSO (FIG. 1C)): increase
6.06	–	CCCc1c(C)c(=O)[nH]c2nnc(SCc3c(F)cccc3Cl)n12 [Compound 48, 3-[(2-chloro-6-fluorobenzyl)sulfanyl]-6-methyl-5-propyl[1,2,4]triazolo[4,3-a]pyrimidin-7 (8H)-one]	–
4.95	–	CCCc1cc(=O)[nH]c2nnc(S(=O)(=O)Cc3c(F)cccc3Cl)n12 [Compound 50, 3-[(2-chloro-6-fluorobenzyl)sulfonyl]-5-propyl[1,2,4]triazolo[4,3-a]pyrimidin-7 (8H)-one]	–
5.44	–	CCCc1cc(=O)[nH]c2nnc(CCc3ccccc3)n12 [Compound 51, 3-(2-phenylethyl)-5-propyl[1,2,4]triazolo[4,3-a]pyrimidin-7 (8H)-one]	–
4.90	–	Cc1cc(=O)[nH]c2nnc(SCc3ccc(Cl)cc3)n12 [Compound 85, 3-[(4-chlorobenzyl)sulfanyl]-5-methyl[1,2,4]triazolo[4,3-a]pyrimidin-7 (8H)-one]	–
5.60	–	CCCc1cc(=O)[nH]c2nnc(SCc3cccc4ccccc34)n12 [Compound 90, 3-[(naphthalen-1-ylmethyl)sulfanyl]-5-propyl[1,2,4]triazolo[4,3-a]pyrimidin-7 (8H)-one]	–
